Test results published in patent publication US20210047324A1 (Aptinyx Inc., priority 2018, published 2021).
Where two headings read alike, the source gives them in different places.

Assays:
[1] = Plasma stability (Human); type: in vitro ADME; details: after 60 minutes
Description: (§1) Plasma stability of disclosed compounds was investigated. The following table indicates the percent of compound remaining after 60 minutes.

[2] = IV pharmacokinetics in Sprague Dawley rats; type: in vivo; details: rat, 2 mg/kg, normal saline; for Vd: read-out: Vss
Description: Sprague Dawley rats were dosed intravenously using a normal saline formulation containing 2 mg/kg of the compounds identified in the below table. The table below summarizes the results of the IV pharmacokinetics.

[3] = Plasma stability (Rat); type: in vitro ADME; details: after 60 minutes
Description: as §1

[4] = biological target: T1, NMDAR2A (Homo sapiens, UniProt Q12879); assay: NMDAR agonist assay, [3H]MK-801 binding, NMDAR2A expressing HEK cell membranes; type: biochemical; details: 50 μM glutamate; for EC50: read-out: NMDAR2A B: log EC50 (converted); for Emax: 0.25 h, read-out: NMDAR2A A: % maximal [3H]MK-801 binding relative to 1 mM glycine; for Emax / NMDAR2A A: % maximal [3H]MK-801 binding relative to 1 mM glycine: relative to 1 mM glycine
T1 construct: expressed in transfected cells; host or cells: HEK cells (membrane extract)
T1 sequence (Q12879 23-1464, species assumed, other chains not shown): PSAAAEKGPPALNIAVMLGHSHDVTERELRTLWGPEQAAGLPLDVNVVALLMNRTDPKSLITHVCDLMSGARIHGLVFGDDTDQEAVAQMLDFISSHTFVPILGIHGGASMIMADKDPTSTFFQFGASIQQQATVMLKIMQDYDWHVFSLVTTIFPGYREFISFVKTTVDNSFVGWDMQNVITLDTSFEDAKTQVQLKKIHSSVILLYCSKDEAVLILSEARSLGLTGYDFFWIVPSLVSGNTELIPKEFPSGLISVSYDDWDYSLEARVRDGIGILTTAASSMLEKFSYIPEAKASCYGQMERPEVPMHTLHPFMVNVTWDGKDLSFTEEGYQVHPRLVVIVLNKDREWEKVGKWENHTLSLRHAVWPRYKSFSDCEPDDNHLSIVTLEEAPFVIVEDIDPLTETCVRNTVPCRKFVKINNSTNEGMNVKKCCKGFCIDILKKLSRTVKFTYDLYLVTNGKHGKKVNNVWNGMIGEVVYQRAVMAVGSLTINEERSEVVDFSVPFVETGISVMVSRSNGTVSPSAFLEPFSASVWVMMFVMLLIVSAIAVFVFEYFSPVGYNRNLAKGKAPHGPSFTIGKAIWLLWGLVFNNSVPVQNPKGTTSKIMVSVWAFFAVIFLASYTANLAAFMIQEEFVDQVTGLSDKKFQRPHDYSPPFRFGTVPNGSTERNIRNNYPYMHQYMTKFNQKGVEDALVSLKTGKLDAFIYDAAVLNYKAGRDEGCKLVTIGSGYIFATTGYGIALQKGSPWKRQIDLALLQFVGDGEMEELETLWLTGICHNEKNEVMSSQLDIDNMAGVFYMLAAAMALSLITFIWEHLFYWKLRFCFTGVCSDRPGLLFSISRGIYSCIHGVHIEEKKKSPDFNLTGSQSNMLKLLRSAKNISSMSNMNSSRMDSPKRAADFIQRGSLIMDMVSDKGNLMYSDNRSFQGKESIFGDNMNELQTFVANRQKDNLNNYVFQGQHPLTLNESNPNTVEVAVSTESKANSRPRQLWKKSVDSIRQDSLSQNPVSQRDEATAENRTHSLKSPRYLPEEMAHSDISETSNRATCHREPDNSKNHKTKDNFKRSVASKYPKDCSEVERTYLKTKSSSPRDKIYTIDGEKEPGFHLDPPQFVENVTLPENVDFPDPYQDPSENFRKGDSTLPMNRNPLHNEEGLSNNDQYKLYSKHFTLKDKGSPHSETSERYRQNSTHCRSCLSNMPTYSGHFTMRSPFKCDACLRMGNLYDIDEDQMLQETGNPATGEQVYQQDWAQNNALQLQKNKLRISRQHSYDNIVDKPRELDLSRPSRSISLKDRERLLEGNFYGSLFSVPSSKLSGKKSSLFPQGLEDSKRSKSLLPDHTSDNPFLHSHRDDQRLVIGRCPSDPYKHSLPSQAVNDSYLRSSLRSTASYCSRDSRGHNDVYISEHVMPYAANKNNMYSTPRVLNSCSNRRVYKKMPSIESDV
Description: (§2) Assays were conducted as described by Moskal et al., “GLYX-13: a monoclonal antibody-derived peptide that acts as an N-methyl-D-aspartate receptor modulator,” Neuropharmacology, 49, 1077-87, 2005. These studies were designed to determine if the test compounds act to facilitate NMDAR activation in NMDAR2A, NMDAR2B, NMDAR2C or NMDAR2D expressing HEK cell membranes as measured by increases in [^3H]MK-801 binding.
(§3) In the assay, 300 μg of NMDAR expressing HEK cell membrane extract protein was preincubated for 15 minutes at […] in the presence of saturating concentrations of glutamate (50 μM) and varying concentrations of test compound (1×10^−15M-1×10^−7M), or 1 mM glycine. Following the addition of 0.3 μCi of [3H]MK-801 (22.5 Ci/mmol), reactions were again incubated for 15 minutes at 25° C. (nonequilibrium conditions). Bound and free [3H]MK-801 were separated via rapid filtration using a Brandel apparatus.
(§4) In analyzing the data, the DPM (disintegrations per minute) of [3H]MK-801 remaining on the filter were measured for each concentration of test compound or for 1 mM glycine. The DPM values for each concentration of a ligand (N=2) were averaged. The baseline value was determined from the best fit curve of the DPM values modeled using the GraphPad program and the log(agonist) vs. response (three parameters) algorithm was then subtracted from all points in the dataset. The % maximal [^3H]MK-801 binding was then calculated relative to that of 1 mM glycine: all baseline subtracted DPM values were divided by the average value for 1 mM glycine. The EC50 and % maximal activity were then obtained from the best fit curve of the % maximal [3H]MK-801 binding data modelled using the GraphPad program and the log(agonist) vs. response (three parameters) algorithm.
(§5) The tables below summarize the results for the wild type […] NMDAR2A, NMDAR2B, NMDAR2C, and NMDAR2D, and whether the compound is not an agonist (−), is an agonist (+), or is a strong agonist (++), where column A is based on the % maximal [3H]MK-801 binding relative to 1 mM glycine (−=0; <100%=+; and >100%=++); and column B is based on log EC50 values (0=−; ≥1×10^−9 M (e.g., −8)=+; and <1×10^−9 M (e.g., −10)=++).

[5] = Microsomal stability (Human); type: in vitro ADME; details: after 60 minutes
Description: (§6) Microsomal stability of disclosed compounds was investigated. The following table indicates the percent of compound remaining after 60 minutes.

[6] = Microsomal stability (Rat); type: in vitro ADME; details: after 60 minutes
Description: as §6

[7] = biological target: T2, NMDAR2B (Homo sapiens, UniProt Q13224); assay: NMDAR agonist assay, [3H]MK-801 binding, NMDAR2B expressing HEK cell membranes; type: biochemical; details: 50 μM glutamate; for EC50: read-out: NMDAR2B B: log EC50 (converted); for Emax / NMDAR2B A: % maximal [3H]MK-801 binding relative to 1 mM glycine: relative to 1 mM glycine; for Emax: read-out: NMDAR2B A: % maximal [3H]MK-801 binding relative to 1 mM glycine
T2 construct: expressed in transfected cells; host or cells: HEK cells (membrane extract)
T2 sequence (Q13224 27-1484, species assumed, other chains not shown): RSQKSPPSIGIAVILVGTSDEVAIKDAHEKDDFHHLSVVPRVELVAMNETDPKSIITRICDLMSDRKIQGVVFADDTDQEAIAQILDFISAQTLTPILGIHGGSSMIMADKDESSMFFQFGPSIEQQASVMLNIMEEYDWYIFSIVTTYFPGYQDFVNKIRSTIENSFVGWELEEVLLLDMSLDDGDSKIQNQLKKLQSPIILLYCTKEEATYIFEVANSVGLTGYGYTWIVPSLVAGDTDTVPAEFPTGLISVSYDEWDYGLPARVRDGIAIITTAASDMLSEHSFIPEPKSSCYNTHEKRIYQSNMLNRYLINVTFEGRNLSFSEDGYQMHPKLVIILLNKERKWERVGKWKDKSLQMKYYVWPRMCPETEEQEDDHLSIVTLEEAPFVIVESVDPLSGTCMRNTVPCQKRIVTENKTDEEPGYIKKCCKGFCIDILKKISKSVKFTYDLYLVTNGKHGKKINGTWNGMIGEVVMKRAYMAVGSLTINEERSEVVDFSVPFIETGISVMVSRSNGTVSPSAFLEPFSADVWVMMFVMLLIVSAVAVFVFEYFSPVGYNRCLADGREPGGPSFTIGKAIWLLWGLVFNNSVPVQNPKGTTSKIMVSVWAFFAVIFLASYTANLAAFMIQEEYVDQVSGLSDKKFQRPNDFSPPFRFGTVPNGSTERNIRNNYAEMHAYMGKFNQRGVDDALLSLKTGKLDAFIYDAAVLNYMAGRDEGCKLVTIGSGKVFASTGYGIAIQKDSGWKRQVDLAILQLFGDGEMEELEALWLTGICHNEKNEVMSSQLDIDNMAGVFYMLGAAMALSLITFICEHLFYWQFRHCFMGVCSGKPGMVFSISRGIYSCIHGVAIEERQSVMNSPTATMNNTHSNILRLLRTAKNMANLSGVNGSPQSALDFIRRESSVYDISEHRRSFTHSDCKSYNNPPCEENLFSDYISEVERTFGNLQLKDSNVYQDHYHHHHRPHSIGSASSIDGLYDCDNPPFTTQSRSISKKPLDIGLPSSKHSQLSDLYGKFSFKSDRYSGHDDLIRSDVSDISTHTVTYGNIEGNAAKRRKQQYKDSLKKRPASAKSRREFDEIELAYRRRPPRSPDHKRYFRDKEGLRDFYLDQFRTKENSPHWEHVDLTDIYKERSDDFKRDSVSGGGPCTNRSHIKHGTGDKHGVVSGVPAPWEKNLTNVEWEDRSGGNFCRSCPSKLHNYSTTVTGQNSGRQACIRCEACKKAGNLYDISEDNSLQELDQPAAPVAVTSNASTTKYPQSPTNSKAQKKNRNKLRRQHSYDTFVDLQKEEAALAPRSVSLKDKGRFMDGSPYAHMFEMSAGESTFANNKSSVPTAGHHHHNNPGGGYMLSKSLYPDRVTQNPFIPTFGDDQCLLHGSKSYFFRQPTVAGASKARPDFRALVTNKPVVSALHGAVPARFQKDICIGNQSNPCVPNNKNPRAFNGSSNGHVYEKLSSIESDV
Description: as §2, §3, §4, §5

[8] = Oral pharmacokinetics in Sprague Dawley rats (plasma, brain, CSF); type: in vivo; details: rat
Description: In another experiment, Sprague Dawley rats were dosed per os (oral gavage) using a normal saline formulation containing 10 mg/kg of the compounds identified in the table below. Plasma, brain, and CSF samples were analyzed at various time points over a 24 hour period. The table below summarizes the results of the oral pharmacokinetics, where the first three values (Tmax, Cmax and AUClast) are plasma values.

[9] = Sprague-Dawley, in vivo, iv, read-out: Cmax
[10] = Sprague-Dawley, po, per os, 10 mg/kg, plasma, read-out: Tmax
[11] = Sprague-Dawley, plasma, po, 10 mg/kg, per os
[12] = Sprague-Dawley, plasma, po, 10 mg/kg, per os 10 mg/kg
[13] = Sprague-Dawley, plasma, po, 10 mg/kg, per os, 10 mg/kg, plasma, read-out: Cmax

In the case of O=C1NCCCC12CCCCN2 (single isomer, unassigned) [AX, 1,8-diazaspiro[5.5]undecan-7-one], the “Plasma (Human): percent of compound remaining” value [1] is reported as 105%, the AUC(0-t) ([2]; Sprague-Dawley, in vivo, iv) is reported as 1360 ng·h/mL and the clearance ([2]; Sprague-Dawley, in vivo, iv) is reported as 24.4 mL/min/kg. It also gave a half-life ([2]; Sprague-Dawley, in vivo, iv) of 9.15 h, a Cmax [2, 9] of 1420 ng/mL and a Vd ([2]; Sprague-Dawley, in vivo, iv) of 3.31 L/kg. The “Plasma (Rat): percent of compound remaining” value [3] was 99%, the EC50 [4] was under 1 nM and the Emax [4] was under 100%. The “Microsomal (Human): percent of compound remaining” value [5] was 93%, the “Microsomal (Rat): percent of compound remaining” value [6] was 120% and the EC50 [7] was at least 1 nM. The Emax [7] was under 100%, the Tmax [8, 10] was 1 h and the AUC(0-t) [8, 11] was 6680 ng·h/mL. The bioavailability [8, 12] was 98%, the Cmax [8, 13] was 2560 ng/mL and the “CSF Cmax” value ([8]; per os, 10 mg/kg) was 342.07 ng/mL. The “Brain Cmax” value ([8]; per os, 10 mg/kg) was 1547.36 ng/mL.

For CC(C)C(=O)N1CCC2(CCCN2C(=O)C(C)C)C1=O (single isomer, unassigned) [GU-1, 1,1′-(6-oxo-1,7-diazaspiro[4.4]nonane-1,7-diyl)bis(2-methylpropan-1-one)], the “Plasma (Human): percent of compound remaining” value [1] was 82%, the AUC(0-t) ([2]; Sprague-Dawley, in vivo, iv) was 1140 ng·h/mL and the clearance ([2]; Sprague-Dawley, in vivo, iv) was 29.3 mL/min/kg. The half-life ([2]; Sprague-Dawley, in vivo, iv) was 0.18 h, the Cmax [2, 9] was 5850 ng/mL and the Vd ([2]; Sprague-Dawley, in vivo, iv) was 0.36 L/kg. The “Plasma (Rat): percent of compound remaining” value [3] was 89%, the “NMDAR2A A: % maximal [3H]MK-801 binding relative to 1 mM glycine” value [4] was 0% and the “Microsomal (Human): percent of compound remaining” value [5] was 96%. The “Microsomal (Rat): percent of compound remaining” value [6] was 94%, the EC50 [7] was under 1 nM and the Emax [7] was under 100%. For the same molecule, the Tmax [8, 10] was 0.25 h, the AUC(0-t) [8, 11] was 2100 ng·h/mL and the bioavailability [8, 12] was 37%. For the same molecule, the Cmax [8, 13] was 4620 ng/mL, the “CSF Cmax” value ([8]; per os, 10 mg/kg) was 0 ng/mL and the “Brain Cmax” value ([8]; per os, 10 mg/kg) was 0 ng/mL.

For NC(=O)CN1CCCC12CC=CCNC2=O (single isomer, unassigned) [GQ-2, 2-(6-oxo-1,7-diazaspiro[4.6]undec-9-en-1-yl)acetamide], the “Plasma (Human): percent of compound remaining” value [1] was 96%, the AUC(0-t) ([2]; Sprague-Dawley, in vivo, iv) was 1290 ng·h/mL and the clearance ([2]; Sprague-Dawley, in vivo, iv) was 25.7 mL/min/kg. The half-life ([2]; Sprague-Dawley, in vivo, iv) was 1.77 h, the Cmax [2, 9] was 2310 ng/mL and the Vd ([2]; Sprague-Dawley, in vivo, iv) was 1.11 L/kg. The “Plasma (Rat): percent of compound remaining” value [3] was 97%, the EC50 [4] was under 1 nM and the “NMDAR2A A: % maximal [3H]MK-801 binding relative to 1 mM glycine” value [4] was “+ (<100%=+)”. For the same molecule, the “Microsomal (Human): percent of compound remaining” value [5] was 94%, the “Microsomal (Rat): percent of compound remaining” value [6] was 102% and the EC50 [7] was under 1 nM. For the same molecule, the “NMDAR2B A: % maximal [3H]MK-801 binding relative to 1 mM glycine” value [7] was “+ (<100%=+)”, the Tmax [8, 10] was 0.25 h and the AUC(0-t) [8, 11] was 5480 ng·h/mL. The bioavailability [8, 12] was 85%, the Cmax [8, 13] was 5390 ng/mL and the “CSF Cmax” value ([8]; per os, 10 mg/kg) was 1400.31 ng/mL. For the same molecule, the “Brain Cmax” value ([8]; per os, 10 mg/kg) was 492.96 ng/mL.

For O=C1NCCCC12CCCCN2 (single isomer, unassigned) [AY, 1,8-diazaspiro[5.5]undecan-7-one], the “Plasma (Human): percent of compound remaining” value [1] was 104%, the AUClast [2] was 1658.09 ng·h/mL and the Cl [2] was 20.15 mL/min/kg. For the same molecule, the Cmax [2] was 1552.63 ng/mL, the T1/2 [2] was 9.65 h and the Vss [2] was 3.88 L/kg. For the same molecule, the “Plasma (Rat): percent of compound remaining” value [3] was 107%, the EC50 [4] was under 1 nM and the “NMDAR2A A: % maximal [3H]MK-801 binding relative to 1 mM glycine” value [4] was “+ (<100%=+)”. For the same molecule, the “Microsomal (Human): percent of compound remaining” value [5] was 97%, the “Microsomal (Rat): percent of compound remaining” value [6] was 114% and the EC50 [7] was under 1 nM. For the same molecule, the “NMDAR2B A: % maximal [3H]MK-801 binding relative to 1 mM glycine” value [7] was “+ (<100%=+)”, the “% F” value ([8]; per os 10 mg/kg) was 79% and the “CSF Cmax” value ([8]; per os, 10 mg/kg) was 701.8 ng/mL. For the same molecule, the “Brain Cmax” value ([8]; per os, 10 mg/kg) was 799.5 ng/mL, the “AUC(0-last)” value ([8]; per os, 10 mg/kg, plasma) was 6528.55 ng·h/mL and the Cmax ([8]; per os, 10 mg/kg, plasma) was 3038.07 ng/mL. It also gave a Tmax ([8]; per os, 10 mg/kg, plasma) of 1 h.

For O=C1NCCCCC12CCCNC2 (single isomer, unassigned) [CF, 2,8-diazaspiro[5.6]dodecan-7-one], the “Plasma (Human): percent of compound remaining” value [1] was 107%, the AUC(0-t) ([2]; Sprague-Dawley, in vivo, iv) was 1110 ng·h/mL and the clearance ([2]; Sprague-Dawley, in vivo, iv) was 29.9 mL/min/kg. It also gave a half-life ([2]; Sprague-Dawley, in vivo, iv) of 1.8 h, a Cmax [2, 9] of 1990 ng/mL and a Vd ([2]; Sprague-Dawley, in vivo, iv) of 2.85 L/kg. The “Plasma (Rat): percent of compound remaining” value [3] was 91%, the EC50 [4] was under 1 nM and the Emax [4] was under 100%. For the same molecule, the “Microsomal (Human): percent of compound remaining” value [5] was 91%, the “Microsomal (Rat): percent of compound remaining” value [6] was 88% and the EC50 [7] was under 1 nM. For the same molecule, the Emax [7] was under 100%, the Tmax [8, 10] was 2 h and the AUC(0-t) [8, 11] was 1830 ng·h/mL. For the same molecule, the bioavailability [8, 12] was 33%, the Cmax [8, 13] was 556 ng/mL and the “CSF Cmax” value ([8]; per os, 10 mg/kg) was 51.64 ng/mL. For the same molecule, the “Brain Cmax” value ([8]; per os, 10 mg/kg) was 48.22 ng/mL.
